The values that follow come from patent US20190169134A1, “NOVEL CLASS OF QUINOLONE HETEROCYCLIC AROMATIC MOLECULES FOR CANCER TREATMENT” (RenoTarget Therapeutics, Inc., priority 2016, published 2019).

One test deals with 22RV1. Kind of test: Cell growth inhibition by SRB method. The format is cell-based, human. The following applies: Homo sapiens, 22Rv1, 72 h, 72 hrs exposure, SRB. From the text:
(§1) Six human cancer cell lines have been used to evaluate effects of the compounds on proliferation of cancer cells. These cell lines include HCC827-P (or HCC827 parent cells), human non-small lung cancer cells, Parent NSCLC HCC827 cell line (which harbors EGFR gene amplification, Exon 19 (E19) deletion, and Exon 21 mutation (Wang, Ramakrishnan et al. 2010), and is an EGFRi sensitive cell line (Kim, Kim et al. 2010)); HCC827-TR16 (Tarceva-resistant HCC727 cell line), HCC827-OR16 (AZD9291-resistant HCC727 cell line), LNCaP (human prostate cancer cells—a hormonal-therapy sensitive cell line (Wang, Liu et al. 1997)); 22RV1 (human prostate cancer cells—a hormonal-therapy resistant cell line (Sramkoski, Pretlow et al. 1999)); and ACHN (human renal adenocarcinoma cells (Park, Jung et al. 2003)). LNCaP cells and 22RV1 cells were purchased from the American Type Culture Collection (Rockville, Md.) and others were gifts of friends.
(§2) All cell lines were maintained in RPMI-1640 (GIBCO, Gaithersburg, Md.) with 10% heat-inactivated bovine serum (FBS) (Wang, Ossowski et al. 2004).
(§3) Sulforhodamine B (SRB) was used to estimate cell growth as described previously (Skehan, Storeng et al. 1990). Briefly, cells grown exponentially were aliquoted into 96-well plates at a density of 2,500 to 5,000 cells/200 μl per well in RPMI 1640 medium containing 10% FBS. After twenty-four hours, the cells were exposed to indicated concentrations of tested compounds for 72 hrs or otherwise as indicated. The cells were then fixed with 10% trichloride acetic acid for 2 h at 4° C. The 10% trichloride acetic acid was removed, and the dishes were washed 5 times with tape water, and air-dried. The fixed and dried cells were then stained with 0.4% SRB in 1% acetic acid for 25 min, and the dishes were washed 5 times with 1% acetic acid and air-dried overnight. 200 μl of 10 mM of Tris buffer (pH 10.0) were added, and the dishes were rotated to completely dissolve the color. Absorbance at 570 nm, with a reference wavelength 690 nm, was measured on a 96-well microplate reader (SPECTRO Star^Nano, BMG Labtech). Mean, standard deviation (SD) and the percent of growth inhibition at each concentration point of the treatment were calculated. The percent of growth inhibition as defined as (1−T/C)×100 where T is the mean of the absorbance at 570 nm from the treatment, and C from control (drug vehicle only). IC50 was calculated using Sigma-plot software by regression of growth-concentration curve from each drug treatment.
For orientation: The SRB assay estimates cell density from bound dye.

A further test has as its system ACHN. Kind of test: Cell growth inhibition by SRB method. The format is cell-based, human. The following applies: Homo sapiens, ACHN, 72 hrs exposure.
Excerpt: as §1, §2, §3

In a further test the test system is LNCaP. As to the kind of experiment: Cell growth inhibition by SRB method. The following applies: Homo sapiens, LNCaP; 72 hrs exposure, SRB. The format is cell-based, human.
Excerpt: as §1, §2, §3

The target of a further test is T1, HER2 (Homo sapiens, UniProt P04626).
T1 construct: made in house; host or cells: cell-free, rabbit reticulocyte lysate
T1 sequence (P04626 23-1255): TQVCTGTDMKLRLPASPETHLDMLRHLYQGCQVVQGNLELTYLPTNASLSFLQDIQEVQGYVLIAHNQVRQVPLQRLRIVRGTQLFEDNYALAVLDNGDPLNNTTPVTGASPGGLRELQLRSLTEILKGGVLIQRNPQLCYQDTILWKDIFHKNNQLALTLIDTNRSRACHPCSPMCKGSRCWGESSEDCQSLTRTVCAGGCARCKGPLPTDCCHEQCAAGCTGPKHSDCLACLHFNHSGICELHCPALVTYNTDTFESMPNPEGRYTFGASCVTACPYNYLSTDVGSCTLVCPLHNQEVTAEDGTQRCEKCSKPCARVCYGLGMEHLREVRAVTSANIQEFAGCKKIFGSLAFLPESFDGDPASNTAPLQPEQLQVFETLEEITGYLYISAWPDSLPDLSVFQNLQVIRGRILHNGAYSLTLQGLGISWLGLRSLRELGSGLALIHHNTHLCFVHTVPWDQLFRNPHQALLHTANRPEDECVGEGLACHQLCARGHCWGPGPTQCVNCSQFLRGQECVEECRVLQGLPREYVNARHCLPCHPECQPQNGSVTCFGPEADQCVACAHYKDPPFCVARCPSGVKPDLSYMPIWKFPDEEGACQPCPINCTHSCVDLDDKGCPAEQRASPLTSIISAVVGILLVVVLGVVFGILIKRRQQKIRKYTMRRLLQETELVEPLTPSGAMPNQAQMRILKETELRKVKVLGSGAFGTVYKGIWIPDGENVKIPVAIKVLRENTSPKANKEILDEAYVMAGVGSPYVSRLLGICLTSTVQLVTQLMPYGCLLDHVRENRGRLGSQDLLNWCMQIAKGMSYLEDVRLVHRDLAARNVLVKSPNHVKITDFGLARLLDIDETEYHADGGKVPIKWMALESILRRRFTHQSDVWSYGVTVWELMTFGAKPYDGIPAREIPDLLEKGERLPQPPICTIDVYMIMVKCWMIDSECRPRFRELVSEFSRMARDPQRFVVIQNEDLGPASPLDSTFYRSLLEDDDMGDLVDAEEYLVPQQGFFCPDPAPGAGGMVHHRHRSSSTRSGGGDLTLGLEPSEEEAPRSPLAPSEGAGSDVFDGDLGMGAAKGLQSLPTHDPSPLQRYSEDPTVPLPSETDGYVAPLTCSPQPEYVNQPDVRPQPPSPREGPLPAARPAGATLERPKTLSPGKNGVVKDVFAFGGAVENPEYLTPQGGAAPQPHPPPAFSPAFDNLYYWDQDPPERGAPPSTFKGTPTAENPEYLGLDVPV
As to the kind of experiment: KinaseSeeker competition binding assay. The protocol:
(§4) Compound Reno647 was profiled against the following panel of kinases at 2 μM using the KinaseSeeker™ assay: ABL1, AKT1, AKT2, AKT3, ALK, AURKA, AXL, BRAF, BTK, CDK2, CDK5, CDK7, CDK8, CSF1R, DDR1, EGFR del L747-P753 InsS, EGFR (L861Q), EGFR (G719S), EGFR, EGFR (L858R), EPHA2, EPHB2, FGFR3, FLT1/VEGFR1, FLT2/FGFR1, FLT3, FLT4/VEGFR3, GSK-3a, HER2, IGF1R, INSR, KIT, LIMK1, MET, MLK2/MAP3K10, RPS6KA5/MSK1, MUSK, p38a/MAPK12, PDGFRA, PDGFRB, PDK1, RET, RIPK2, RPS6KA1/RSK1, SRC, TEC, TESK1, TRKB, VEGFR2, and YES 1.
(§5) KinaseSeeker is a homogeneous competition binding assay where the displacement of an active site dependent probe by an inhibitor is measured by a change in luminescence signal (see FIG. 7). Luminescence readout translates into a highly sensitive and robust assay with low background and minimal interference from test compounds.
(§6) (Jester, Cox et al. 2010; Jester, Gaj et al. 2012): 10 mM stock of compound Reno647 was diluted in DMSO to a concentration of 50 μM. Prior to initiating a profiling campaign, the compound was evaluated for false positive against split-luciferase. The compound was then screened in duplicate against each of the kinases. For kinase assays, each Cfluc-Kinase was translated along with Fos-Nfluc using a cell-free system (rabbit reticulocyte lysate) at 30° C. for 90 min. A 24 μL aliquot of this lysate containing either 1 μL of DMSO (for no-inhibitor control) or compound solution in DMSO (2 LM final concentration) was incubated for 30 minutes at room temperature followed by 1 hour in the presence of a kinase specific probe. A 80 μL of luciferin assay reagent was added to each solution and luminescence was immediately measured on a luminometer.
(§7) The % Inhibition and % Activity Remaining were calculated using the following equations:
(§8) % inhibition=(ALUcontrol−ALUsample)×100
(§9) % activity=100−% inhibition.

In the next test the target is T2, MET (Homo sapiens, UniProt P08581).
T2 construct: made in house; host or cells: cell-free, rabbit reticulocyte lysate
T2 sequence (P08581 25-1390): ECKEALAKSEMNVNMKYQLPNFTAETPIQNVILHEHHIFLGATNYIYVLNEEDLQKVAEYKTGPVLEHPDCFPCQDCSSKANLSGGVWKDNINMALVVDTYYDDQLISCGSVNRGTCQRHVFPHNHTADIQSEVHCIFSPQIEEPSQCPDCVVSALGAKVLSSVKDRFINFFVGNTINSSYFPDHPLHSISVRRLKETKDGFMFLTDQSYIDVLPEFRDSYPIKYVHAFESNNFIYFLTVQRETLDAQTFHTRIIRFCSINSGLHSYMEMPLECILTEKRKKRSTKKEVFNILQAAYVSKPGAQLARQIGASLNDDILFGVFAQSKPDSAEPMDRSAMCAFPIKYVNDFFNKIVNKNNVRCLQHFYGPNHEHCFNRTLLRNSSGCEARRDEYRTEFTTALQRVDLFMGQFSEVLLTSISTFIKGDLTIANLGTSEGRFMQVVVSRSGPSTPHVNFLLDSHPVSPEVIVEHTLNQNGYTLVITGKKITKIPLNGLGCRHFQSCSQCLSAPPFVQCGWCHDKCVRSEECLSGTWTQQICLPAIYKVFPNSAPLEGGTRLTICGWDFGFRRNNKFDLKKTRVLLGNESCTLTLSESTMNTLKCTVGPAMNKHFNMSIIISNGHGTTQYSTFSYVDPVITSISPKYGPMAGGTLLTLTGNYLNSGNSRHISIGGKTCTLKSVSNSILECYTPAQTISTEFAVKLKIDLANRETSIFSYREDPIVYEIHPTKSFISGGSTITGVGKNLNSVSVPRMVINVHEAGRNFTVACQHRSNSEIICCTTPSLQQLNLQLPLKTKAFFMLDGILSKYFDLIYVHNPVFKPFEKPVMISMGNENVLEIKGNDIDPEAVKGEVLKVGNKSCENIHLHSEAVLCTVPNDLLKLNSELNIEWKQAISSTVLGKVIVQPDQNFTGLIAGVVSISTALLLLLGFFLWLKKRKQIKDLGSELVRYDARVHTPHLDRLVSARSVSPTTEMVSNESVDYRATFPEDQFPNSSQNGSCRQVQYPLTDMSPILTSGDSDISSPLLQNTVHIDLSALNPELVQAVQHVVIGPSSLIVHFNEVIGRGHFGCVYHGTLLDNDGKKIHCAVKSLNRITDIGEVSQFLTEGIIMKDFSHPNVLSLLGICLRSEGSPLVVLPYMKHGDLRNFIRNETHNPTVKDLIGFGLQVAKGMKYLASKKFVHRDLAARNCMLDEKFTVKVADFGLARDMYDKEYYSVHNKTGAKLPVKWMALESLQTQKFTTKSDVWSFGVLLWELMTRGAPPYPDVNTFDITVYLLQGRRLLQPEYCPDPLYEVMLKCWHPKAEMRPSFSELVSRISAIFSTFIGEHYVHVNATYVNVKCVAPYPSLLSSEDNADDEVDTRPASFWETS
Kind of test: KinaseSeeker competition binding assay. The protocol: as §4, §5, §6, §7, §8, §9

Take `C#Cc1cccc(Nc2ncnc3cc(OCCOC)c(NC(=O)c4ccc(F)c([N+](=O)[O-])c4)cc23)c1` [Reno647, 4-Fluoro-N-[4-(3-ethynyl-phenylamino)-7-(2-methoxy-ethoxy)-quinazolin-6-yl]-3-nitro-benzamide]: the IC50 in the test on 22RV1 is around 500 nM; in the test on ACHN, 1250 nM; with LNCaP, 1250 nM. For the same compound, the remaining binding at 2 µM at HER2 and on MET was 100% each time.

For orientation: IC50 means the concentration that gives 50% inhibition. A low value points to higher potency.
